Experimental data: US8648096B2, “N-methylaminomethyl isoindole compounds and compositions comprising and methods of using the same” (Celgene Corporation, priority 2006, dated 2014)

| SMILES | melting point |
| --- | --- |
| CCCNC(=O)N(C)Cc1cccc2c1CN(C1CCC(=O)NC1=O)C2=O (stereo not shown) [Example 5.30, 1-[2-(2,6-dioxo-piperidin-3-yl)-1-oxo-2,3-dihydro-1H-isoindol-4-ylmethyl]-1-methyl-3-propyl-urea] | 220 to 222 °C |
| CN(Cc1cccc2c1C(=O)N(C1CCC(=O)NC1=O)C2=O)C(=O)NC(C)(C)C (stereo not shown) [Example 5.36, 3-tert-butyl-1-[2-(2,6-dioxo-piperidin-3-yl)-1,3-dioxo-2,3-dihydro-1H-isoindol-4-ylmethyl]-1-methyl-urea] | 188 to 190 °C |
| CN(Cc1cccc2c1CN(C1CCC(=O)NC1=O)C2=O)C(=O)Nc1cccc(Cl)c1 (stereo not shown) [Example 5.32, 3-(3-chloro-phenyl)-1-[2-(2,6-dioxo-piperidin-3-yl)-1-oxo-2,3-dihydro-1H-isoindol-4-ylmethyl]-1-methyl-urea] | 193 to 195 °C |
| CN(Cc1cccc2c1CN(C1CCC(=O)NC1=O)C2=O)C(=O)Nc1cc(Cl)cc(Cl)c1 (stereo not shown) [Example 5.37, 3-(3,5-dichloro-phenyl)-1-[2-(2,6-dioxo-piperidin-3-yl)-1-oxo-2,3-dihydro-1H-isoindol-4-ylmethyl]-1-methyl-urea] | 285 to 287 °C |

Results, then the compound that gave them:

| melting point | SMILES |
| --- | --- |
| 208 to 210 °C | Cc1cccc(NC(=O)N(C)Cc2cccc3c2CN(C2CCC(=O)NC2=O)C3=O)c1 (stereo not shown) [Example 5.29, 1-[2-(2,6-dioxo-piperidin-3-yl)-1-oxo-2,3-dihydro-1H-isoindol-4-ylmethyl]-1-methyl-3-M-tolyl-urea] |
| 193 to 195 °C | CN(Cc1cccc2c1C(=O)N(C1CCC(=O)NC1=O)C2=O)C(=O)Nc1cccc(Cl)c1 (stereo not shown) [Example 5.35, 3-(3-chloro-phenyl)-1-[2-(2,6-dioxo-piperidin-3-yl)-1,3-dioxo-2,3-dihydro-1H-isoindol-4-ylmethyl]-1-methyl-urea] |
| 138 to 140 °C | CN(Cc1cccc2c1C(=O)N(C1CCC(=O)NC1=O)C2=O)C(=O)OC(C)(C)C (stereo not shown) [Example 5.1, [2-(2,6-dioxo-piperidin-3-yl)-1,3-dioxo-2,3-dihydro-1H-isoindol-4-ylmethyl]-methyl-carbamic acid T-butyl ester] |
| 202 to 204 °C | Cc1ccc(NC(=O)N(C)Cc2cccc3c2C(=O)N(C2CCC(=O)NC2=O)C3=O)cc1C (stereo not shown) [Example 5.40, 3-(3,4-dimethyl-phenyl)-1-[2-(2,6-dioxo-piperidin-3-yl)-1,3-dioxo-2,3-dihydro-1H-isoindol-4-ylmethyl]-1-methyl-urea] |
| 292 to 294 °C | CN(Cc1cccc2c1CN(C1CCC(=O)NC1=O)C2=O)C(=O)Nc1cccc2ccccc12 (stereo not shown) [Example 5.41, 1-[2-(2,6-dioxo-piperidin-3-yl)-1-oxo-2,3-dihydro-1H-isoindol-4-ylmethyl]-1-methyl-3-naphthalen-1-yl-urea] |
| 198 to 200 °C | CN(Cc1cccc2c1CN(C1CCC(=O)NC1=O)C2=O)C(=O)Nc1cccc(C(F)(F)F)c1 (stereo not shown) [Example 5.34, 1-[2-(2,6-dioxo-piperidin-3-yl)-1-oxo-2,3-dihydro-1H-isoindol-4-ylmethyl]-1-methyl-3-(3-trifluoromethyl-phenyl)-urea] |
